Paper PMC7303324, “Conventional Pig as Animal Model for Human Renal Drug Excretion Processes: Unravelling the Porcine Renal Function by Use of a Cocktail of Exogenous Markers” (Frontiers in Pharmacology, 2020)
“And” between values parts separate entries of the source, which are not always exact repeats. Equal values may be shown once. Read-outs that look alike come from different tables or passages of the source.

How the values were obtained:
[1] = pig, in vivo, iv
Source text: (§1) Eight healthy, stress resistant, 6-week-old male piglets (Landrace × Large White × Maximus, Seghers Hybrid®, Wuustwezel, Belgium) were recruited for this study. Upon arrival piglets were group-housed in standard pig stables (2.30 × 2.40 m) with ad libitum access to water and feed (Piggistart Opti®, Aveve, Leuven, Belgium). During the whole experimental period, stables were enriched with rubber toys, balls of different size, and cotton towels. After a 5-day acclimatization period, a double-lumen jugular catheter was inserted following the procedure described by Gasthuys et al., permitting accurate intravenous (IV) administration of the renal markers and blood collection ([Gasthuys et al., 2017b]). During anesthesia, a human stoma ring (Esteem synergy® Uro, 48 mm, ConvaTec, Belgium) was attached around the prepuce of the piglets to allow urine collection ([Gasthuys et al., 2017b]). After surgery, the pigs were housed individually to avoid displacements of the catheters and stoma rings. Catheters were flushed at least twice daily with heparinized 0.9% NaCl (50 IU/ml), and the bandages were changed daily.
(§2) After a one day recovery period, urine pouches were attached to the stoma ring just before administration of the drugs. […] Blood was sampled via the other lumen of the catheter at 0, 5, 15, 30, 45, and 60 min, and 2, 4, 6, 8, 12, 24, 36, 48, and 72 h post administration and collected into K3EDTA collection tubes (Vacutest®, Piove die Sacco, Kima, Italy). The samples were kept on ice and centrifuged (2,095 × g, 10 min, 4°C) within 2 h. Multiple timed urine collections were performed over a 48 h time period. The total volume of urine voided in each time period was registered. Aliquots of plasma were stored at ≤−80°C until analysis. Urine samples were initially stored at −20°C for 6 weeks, but were subsequently stored at −80°C for further storage.
(§3) Total plasma iohexol and PAH concentrations were quantified simultaneously using a validated ultrahigh performance liquid chromatography tandem mass spectrometry (UHPLC-MS/MS) method as previously described by [Dhondt et al. (2019)] […] The same UHPLC method was used for analysis of PAH in urine samples with slight modifications. The LLOQ was 0.25 µg/ml.
(§4) Pharmacokinetic modeling of the plasma concentration–time data was performed using Phoenix® 8.1 (Certara, Cary, NC, USA). Values below the LOQ were excluded from the dataset. […] A multiplicative error model was used. […] The estimated primary parameters were volume of distribution (Vd) and total body clearance (CLTOT). Also the following secondary parameters were calculated: elimination half-life (T1/2el), elimination rate constant (Ke), volume of distribution at steady state (Vss), and the area under the curve from time 0 h to infinity (AUC0→inf).
(§5) The cumulative amount of unchanged compound recovered in the urine (Ae) was calculated taking the sum of the amount excreted at every collection point. This amount was calculated by multiplying the observed concentration by the volume collected at every collection point.
(§6) where AUC0→inf is the area under the plasma concentration–time curve extrapolated to infinity. […] The AUC0→48h was calculated by noncompartmental analysis (NCA) using the linear up-log down trapezoidal method. The nonrenal clearance (CLNR) was obtained by subtracting the CLR from CLTOT. The CLTOT of iohexol is a measure for the GFR. The CLR of PAH is used to estimate the ERPF. The filtration fraction (FF) was calculated by

[2] = healthy human adults, ref Gross et al. (2001), cited from earlier work; for Net tubular reabsorption (CLREA): fluconazole given orally; for Net tubular secretion (CLSECR): pindolol given orally
[3] = test system: plasma proteins; set-up: method as in Humphrey et al., 1985; conditions: other species like humans, dogs, rats, and mice; ref Humphrey et al., 1985; cited from earlier work
[4] = Pharmacokinetics and renal clearance of a renal marker cocktail after IV bolus in 7-week-old male pigs; conditions: for CL renal: plasma and urine
Source text: as §1, §2, §3, §4, §5, §6

[5] = set-up: method as in Gasthuys et al., 2017a; conditions: pigs of 7 weeks of age; ref Gasthuys et al., 2017a; cited from earlier work
[6] = test system: porcine kidney; set-up: method as in Gyrd-Hansen and Rasmussen (1970); conditions: in vivo, pigs; ref Gyrd-Hansen and Rasmussen (1970); cited from earlier work
[7] = test system: plasma proteins; experiment: In vitro plasma protein binding by ultrafiltration in spiked pig plasma; type: in vitro ADME; conditions: 39°C, fluconazole corrected for NSB
Procedure: Three aliquots of each concentration level were analyzed the same way as the pharmacokinetic (PK) study samples as described above to determine the total plasma concentration. Three other aliquots of each concentration were incubated for 1 h in a hot water bath of 39°C to replicate the pig's core body temperature and subsequently transferred onto an ultrafiltration device. […] Thereafter, the obtained filtrate was analyzed in the same way as the PK study samples to determine the unbound plasma concentration. The following equation was used to determine the unbound fraction in plasma: […]
The duration of centrifugation was reduced to 2.5 and 1.0 min for Microcon® and Amicon® filters, respectively.
Cunbound,corrected=Cunbound,measured/1-NSB

[8] = humans, cited from earlier work
[9] = test system: GFR; conditions: hypertensive patients, ref Wainer et al., 1980, cited from earlier work
[10] = test system: ERPF and GFR; set-up: method as in Epstein et al., 1985; conditions: dogs, IV administration; ref Epstein et al., 1985; cited from earlier work
[11] = set-up: method as in Friedli et al., 1986; conditions: pigs with induced myocardial infarction, IV 0.05 mg/kg; ref Friedli et al., 1986; cited from earlier work
[12] = test system: plasma proteins; set-up: method as in Hsyu and Giacomini, 1985; conditions: humans; ref Hsyu and Giacomini, 1985; cited from earlier work
[13] = humans; ref Schwarz, 1982; cited from earlier work
[14] = corrected for estimated mean BSA
[15] = male, Landrace × Large White × Maximus (Seghers Hybrid), pig, plasma, iv
[16] = male, Landrace × Large White × Maximus (Seghers Hybrid), pig, plasma, iv, 0.5 mg/kg
[17] = 7-week-old male pigs, indexed to BSA, mean ± SD

OC(Cn1cncn1)(Cn1cncn1)c1ccc(F)cc1F [Fluconazole, fluconazole]
CLNR ([1]; male, Landrace × Large White × Maximus (Seghers Hybrid)): 0.13 ± 0.039 mL/min/kg | Net tubular reabsorption (CLREA) [2, 14]: 49.21 ± 15.34 ml/min/m² | Net tubular reabsorption (CLREA) ([2]; corrected for mean BW 72 kg): 1.29 ± 0.40 mL/min/kg | Plasma protein binding [3]: ~ 12% | CL renal ([4]; male, Landrace × Large White × Maximus (Seghers Hybrid), pig, iv, 0.5 mg/kg, CLR, IV bolus, 7-week-old male pigs, n = 6, Ae/AUC0→inf (fluconazole: Ae 48 h/AUC0→48h), mean ± SD): 0.32 ± 0.05 mL/min/kg | CL renal ([4]; male, Landrace × Large White × Maximus (Seghers Hybrid), pig, iv, 0.5 mg/kg, Renal clearance calculated over a time period of 24 h, pigs, IV 0.5 mg/kg, data up to 24 h): 0.33 ± 0.06 mL/min/kg | CL renal ([4]; male, Landrace × Large White × Maximus (Seghers Hybrid), pig, iv, 0.5 mg/kg, Renal clearance estimated over 48 h, pigs, IV 0.5 mg/kg, data up to 48 h): 0.32 ± 0.05 mL/min/kg | clearance [4, 15]: 0.45 ± 0.049 mL/min/kg | Vd [4, 16]: 0.98 ± 0.04 L/kg | clearance [4, 16]: 0.45 ± 0.05 mL/min/kg | half-life [4, 16]: 25.7 ± 2.75 h | k el [4, 16]: 8.33e-06 s⁻¹

CC(=O)N(CC(O)CO)c1c(I)c(C(=O)NCC(O)CO)c(I)c(C(=O)NCC(O)CO)c1I (centres unmarked) [Iohexol, iohexol]
Iohexol clearance [5]: 100.92 ± 20.84 ml/min/m² | GFR = CLTOT IOH [4, 17]: 97.87 ± 16.05 ml/min/m² | clearance ([4]; male, Landrace × Large White × Maximus (Seghers Hybrid), pig, plasma, intravenous, 64.7 mg/kg BW): 4.12 ± 0.54 mL/min/kg | clearance [4, 15]: 4.12 ± 0.54 mL/min/kg

Nc1ccc(C(=O)NCC(=O)O)cc1 [PAH, para-aminohippuric acid]
Amount of PAH acetylated by the porcine kidney, mean [6]: −0.1% | CLR [1]: 9.51 ± 2.44 mL/min/kg | Fu, free, non-protein bound, fraction [7]: 1.0 | ERPF = CLR PAH [2, 14]: 247.09 ml/min/m² and 247.09 ± 77.25 ml/min/m² | ERPF = CLR PAH ([2]; corrected for mean BW 72 kg): 6.48 ± 2.02 mL/min/kg | Net tubular secretion (CLSECR) [2, 14]: 189.95 ml/min/m² and 189.95 ± 70.90 ml/min/m² | Net tubular secretion (CLSECR) ([2]; corrected for mean BW 72 kg): 4.99 mL/min/kg and 4.99 ± 1.86 mL/min/kg | ERPF = CLR PAH [4, 17]: 226.77 ml/min/m² and 226.77 ± 62.45 ml/min/m² | ERPF = CLR PAH ([4]; 7-week-old male pigs, indexed to BW, mean ± SD): 9.51 ± 2.44 mL/min/kg | Urinary recovery ([4]; IV bolus, 7-week-old male pigs, fraction of dose recovered unchanged in urine, n = 6): 30.09 ± 5.06% | CLNR ([4]; IV bolus, 7-week-old male pigs, n = 6, CLTOT minus CLR, mean ± SD): 22.02 mL/min/kg and 22.02 ± 3.76 mL/min/kg | Ae, cumulative amount of unchanged compound recovered in the urine ([4]; IV bolus, 7-week-old male pigs, urine collected over 48 h, n = 6, mean ± SD): 29,512 ± 5751 µg | CLTOT ([4]; Table 1, IV bolus, 7-week-old male pigs, iohexol n = 8, others n = 6, mean ± SD): 31.53 ± 5.38 mL/min/kg | Contribution of nonrenal elimination to total clearance ([4]; pigs): approximately 70% | PAH plasma concentrations reached ([4]; pigs, IV bolus 10 mg/kg BW): below 30 µg/ml | Nonrenal clearance as share of total drug elimination ([8]; ref Prescott et al., 1993): 15 to 30% | Plasma concentration at which saturation of the transport system is observed ([8]; ref Tett et al., 2003): 300 to 600 µg/mL

CC(C)NC[C@@H](O)COc1cccc2[nH]ccc12 [R-pindolol]
Fu, free, non-protein bound, fraction [7]: 0.19 ± 0.03^3

CC(C)NC[C@H](O)COc1cccc2[nH]ccc12 [S-pindolol]
Fu, free, non-protein bound, fraction [7]: 0.62 ± 0.00^3

CC(C)NCC(O)COc1cccc2[nH]ccc12 (centres unmarked) [pindolol]
Decrease in GFR against baseline, average ([9]; IV administration): 4.37% | Decrease in GFR against baseline, range ([9]; IV administration): 0.96−9.43% | Effect on GFR against baseline ([9]; oral administration): no significant effect | Effect on ERPF and GFR [10]: slight but insignificant decrements in ERPF and GFR | Hemodynamical changes [11]: did not induce any hemodynamical changes | fu [12]: 0.45 | Urinary excretion of unchanged pindolol [13]: 35%

sinistrin
GFR (renal clearance of sinistrin) [2, 14]: 68.78 ± 21.16^2 ml/min/m² | GFR (renal clearance of sinistrin) ([2]; corrected for mean BW 72 kg): 1.81 ± 0.56^2 ml/min/kg
